Assay results from patent US9115137B2, “2,3,4,5-tetrahydro-1H-pyrido[4,3-B]indole compounds and methods of use thereof” (priority 2008, dated 2015).

Key:
[1] = molecular target: T1, human recombinant histamine H2 receptor (Homo sapiens, UniProt P25021); assay: Histamine H2 radioligand binding ([125I]aminopotentidine); conditions: compound at 1 μM; CHO K1 cells; read-out: Histamine Binding (1 μM) H2, percent inhibition of specific binding
T1 construct: expressed in transfected cells; host or cells: CHO-K1 cells
Summary of the method: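 CHO-K1 membranes expressing the receptor were incubated in 50 mM phosphate buffer pH 7.4 with 0.1 nM [125I]aminopotentidine for 120 minutes at 25° C., with nonspecific binding defined by 3 μM tiotidine. Compounds were tested at 1 μM (1% DMSO); bound radioligand was counted after filtration, values given as percent inhibition of specific binding.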

[2] = molecular target: T2, human recombinant adrenergic α1D receptor (Homo sapiens, UniProt P25100); assay: Adrenergic α1D radioligand binding ([3H]Prozosin); conditions: compound at 1 μM; HEK-293 cells; read-out: Adrenergic (1 μM) α1D, percent inhibition of specific binding
T2 construct: expressed in transfected cells; host or cells: HEK-293 cells
T2 sequence (P25100 1-572): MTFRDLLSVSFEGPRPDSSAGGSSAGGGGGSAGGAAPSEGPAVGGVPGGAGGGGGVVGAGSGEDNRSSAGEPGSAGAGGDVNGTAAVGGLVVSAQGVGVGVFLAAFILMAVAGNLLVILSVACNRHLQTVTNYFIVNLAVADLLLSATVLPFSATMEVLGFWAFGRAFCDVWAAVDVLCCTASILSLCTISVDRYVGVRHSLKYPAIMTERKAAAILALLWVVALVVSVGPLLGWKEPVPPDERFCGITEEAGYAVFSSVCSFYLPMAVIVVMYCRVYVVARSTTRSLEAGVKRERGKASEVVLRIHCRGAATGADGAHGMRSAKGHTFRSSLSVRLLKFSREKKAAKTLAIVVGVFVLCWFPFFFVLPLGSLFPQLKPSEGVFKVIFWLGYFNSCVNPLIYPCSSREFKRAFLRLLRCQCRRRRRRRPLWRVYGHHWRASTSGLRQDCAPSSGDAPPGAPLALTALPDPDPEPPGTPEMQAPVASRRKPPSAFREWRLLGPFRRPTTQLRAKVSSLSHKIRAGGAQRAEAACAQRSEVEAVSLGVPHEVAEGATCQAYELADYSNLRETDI
Summary of the method: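 Values are percent inhibition of specific [3H]prazosin (0.6 nM) binding, determined by filtration after 60 min at 25° C, pH 7.4 Tris-HCl, on recombinant human α1D receptor in HEK-293 cells. Compounds tested at 1 μM or below in 1% DMSO; 10 μM phentolamine set non-specific binding.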

[3] = molecular target: T3, human recombinant serotonin (5-Hydroxytryptamine) 5-HT6 receptor (Homo sapiens, UniProt P50406); assay: Serotonin 5-HT6 radioligand binding ([3H]LSD); conditions: compound at 1 μM; HeLa cells; read-out: Serotonin (1 μM) 5-HT6, percent inhibition of specific binding
T3 construct: expressed in transfected cells; host or cells: human HeLa cells
Summary of the method: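 HeLa membranes expressing receptor, in 50 mM Tris-HCl pH 7.4 with 150 mM NaCl, 2 mM ascorbate, 0.001% BSA, incubated with 1.5 nM [3H]LSD for 120 min at 37 °C. Nonspecific binding defined with 5 μM 5-HT.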

[4] = molecular target: T4, human recombinant histamine H1 receptor (Homo sapiens, UniProt P35367); assay: Histamine H1 radioligand binding ([3H]Pyrilamine); conditions: compound at 1 μM; CHO cells; read-out: Histamine Binding (1 μM) H1, percent inhibition of specific binding
T4 construct: expressed in transfected cells; host or cells: CHO cells
Summary of the method: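 Recombinant human H1 receptor expressed in CHO cells, in Tris-HCl pH 7.4 with MgCl2, NaCl and sucrose, incubated with 1.2 nM [3H]pyrilamine for 180 min at 25 °C; non-specific binding defined with 1 μM pyrilamine. Compounds tested at 1 μM in 1% DMSO; filter-bound counts give percent inhibition of specific binding.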

[5] = molecular target: T5, human recombinant dopamine D2L receptor (Homo sapiens, UniProt P14416); assay: Dopamine D2L radioligand binding ([3H]Spiperone); conditions: compound at 1 μM; CHO cells; read-out: Dopamine (1 μM) D2L, percent inhibition of specific binding
T5 construct: expressed in transfected cells; host or cells: CHO cells
Summary of the method: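 CHO cells expressing the receptor, in 50 mM Tris-HCl pH 7.4 with 1.4 mM ascorbic acid, 0.001% BSA, 150 mM NaCl; 0.16 nM [3H]spiperone, 120 min at 25° C, nonspecific binding with 10 μM haloperidol.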

T5 sequence (P14416 whole entry): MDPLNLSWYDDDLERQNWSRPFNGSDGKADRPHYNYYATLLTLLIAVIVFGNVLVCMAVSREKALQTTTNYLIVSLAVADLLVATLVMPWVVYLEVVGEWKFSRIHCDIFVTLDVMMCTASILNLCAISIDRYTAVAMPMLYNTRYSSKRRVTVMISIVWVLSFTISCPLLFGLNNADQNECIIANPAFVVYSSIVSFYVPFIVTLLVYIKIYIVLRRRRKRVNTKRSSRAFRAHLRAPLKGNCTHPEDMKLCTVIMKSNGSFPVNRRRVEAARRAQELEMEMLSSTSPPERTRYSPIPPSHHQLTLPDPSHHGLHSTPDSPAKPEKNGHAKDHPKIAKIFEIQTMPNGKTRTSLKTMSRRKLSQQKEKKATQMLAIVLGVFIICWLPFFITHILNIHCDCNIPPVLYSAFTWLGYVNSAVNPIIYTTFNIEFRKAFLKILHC
T4 sequence (P35367 whole entry): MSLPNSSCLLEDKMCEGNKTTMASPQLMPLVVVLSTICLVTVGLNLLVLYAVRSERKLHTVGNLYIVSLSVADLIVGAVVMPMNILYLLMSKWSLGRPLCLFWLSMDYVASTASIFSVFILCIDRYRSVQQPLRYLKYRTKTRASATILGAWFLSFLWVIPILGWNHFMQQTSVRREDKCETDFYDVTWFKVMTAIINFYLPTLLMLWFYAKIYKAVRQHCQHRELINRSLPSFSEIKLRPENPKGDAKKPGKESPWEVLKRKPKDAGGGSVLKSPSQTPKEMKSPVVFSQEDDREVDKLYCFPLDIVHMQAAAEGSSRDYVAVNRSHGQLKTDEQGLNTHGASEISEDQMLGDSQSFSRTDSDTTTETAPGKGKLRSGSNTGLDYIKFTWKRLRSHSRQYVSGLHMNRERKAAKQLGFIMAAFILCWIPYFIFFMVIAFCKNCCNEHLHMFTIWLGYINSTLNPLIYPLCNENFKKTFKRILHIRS
T1 sequence (P25021 whole entry): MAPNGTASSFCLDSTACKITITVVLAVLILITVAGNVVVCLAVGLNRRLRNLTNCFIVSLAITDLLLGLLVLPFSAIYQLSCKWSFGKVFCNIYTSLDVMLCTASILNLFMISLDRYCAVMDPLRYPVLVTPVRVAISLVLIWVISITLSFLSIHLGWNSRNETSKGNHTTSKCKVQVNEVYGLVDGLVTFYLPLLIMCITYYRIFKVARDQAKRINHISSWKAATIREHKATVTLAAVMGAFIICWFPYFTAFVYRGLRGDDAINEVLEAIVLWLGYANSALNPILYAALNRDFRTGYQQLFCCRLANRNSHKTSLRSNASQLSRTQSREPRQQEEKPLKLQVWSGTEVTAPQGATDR
T3 sequence (P50406 whole entry): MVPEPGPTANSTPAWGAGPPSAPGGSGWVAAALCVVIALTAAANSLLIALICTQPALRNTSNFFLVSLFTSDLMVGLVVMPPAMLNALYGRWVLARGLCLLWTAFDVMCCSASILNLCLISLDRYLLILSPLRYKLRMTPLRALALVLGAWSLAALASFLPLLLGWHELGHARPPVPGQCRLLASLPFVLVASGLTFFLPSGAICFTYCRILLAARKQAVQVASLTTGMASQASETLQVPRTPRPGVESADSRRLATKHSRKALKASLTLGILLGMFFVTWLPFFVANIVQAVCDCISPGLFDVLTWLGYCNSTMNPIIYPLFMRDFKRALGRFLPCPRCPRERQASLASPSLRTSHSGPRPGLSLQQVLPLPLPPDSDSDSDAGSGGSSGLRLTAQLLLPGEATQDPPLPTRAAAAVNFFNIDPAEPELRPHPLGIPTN

Row | SMILES | inhibition at 1 µM [1] [%] | inhibition at 1 µM [2] [%] | inhibition at 1 µM [3] [%] | inhibition at 1 µM [4] [%] | inhibition at 1 µM [5] [%]
1 | CN1CCc2c(c3cc(Cl)ccc3n2CCC(=O)N(C)C)C1 [Compound 49, 3-(8-chloro-1,2,3,4-tetrahydro-2-methylpyrido[4,3-b]indol-5-yl)-N,N-dimethylpropanamide] | 5 | 18 | 24 | 82 | 9
2 | Cc1ccc2c(c1)c1c(n2CCNC(=O)c2ccncc2)CCN(C)C1 [Compound 50, N-(2-(1,2,3,4-tetrahydro-2,8-dimethylpyrido[4,3-b]indol-5-yl)ethyl)isonicotinamide] | 9 | 37 | -1 | 47 | 7
3 | Cc1ccc2c(c1)c1c(n2CC(=O)Nc2ccc(F)cc2)CCN(C)C1 [Compound 51, N-(4-fluorophenyl)-2-(1,2,3,4-tetrahydro-2,8-dimethylpyrido[4,3-b]indol-5-yl)acetamide] | 8 | 29 | 30 | 85 | 19
4 | CCCCOC(=O)Cn1c2c(c3cc(Cl)ccc31)CN(C)CC2 [Compound 52, butyl 2-(8-chloro-1,2,3,4-tetrahydro-2-methylpyrido[4,3-b]indol-5-yl)acetate] | 23 | 58 | 83 | 98 | 22
5 | Cc1ccc2c(c1)c1c(n2CCC(=O)NC(C)C)CCN(C)C1 [Compound 53] | 12 | 62 | 22 | 51 | -2
6 | Cc1ccc2c(c1)c1c(n2CCC(=O)NCc2ccccc2)CCN(C)C1 [Compound 59, N-benzyl-3-(1,2,3,4-tetrahydro-2,8-dimethylpyrido[4,3-b]indol-5-yl)propanamide] | 5 | 56 | 22 | 60 | 4
7 | CN1CCc2c(c3cc(Cl)ccc3n2CC(=O)NC2CCCCC2)C1 [Compound 60, 2-(8-chloro-1,2,3,4-tetrahydro-2-methylpyrido[4,3-b]indol-5-yl)-N-cyclohexylacetamide] | 3 | 22 | 22 | 50 | 18
8 | Cc1ccc2c(c1)c1c(n2CCNC(=O)C(C)C)CCN(C)C1 [Compound 61, N-(2-(1,2,3,4-tetrahydro-2,8-dimethylpyrido[4,3-b]indol-5-yl)ethyl)isobutyramide] | 13 | 28 | 10 | 32 | -3
9 | Cc1ccc2c(c1)c1c(n2CCNC(=O)C2CCCCC2)CCN(C)C1 [Compound 62, N-(2-(1,2,3,4-tetrahydro-2,8-dimethylpyrido[4,3-b]indol-5-yl)ethyl)cyclohexanecarboxamide] | 39 | 64 | 19 | 63 | 5
10 | Cc1ccc2c(c1)c1c(n2CCNC(=O)c2ccc(F)cc2Cl)CCN(C)C1 [Compound 63, 2-chloro-4-fluoro-N-(2-(1,2,3,4-tetrahydro-2,8-dimethylpyrido[4,3-b]indol-5-yl)ethyl)benzamide] | 35 | 56 | 31 | 86 | 7
11 | Cc1ccc2c(c1)c1c(n2CC(N)=O)CCN(C)C1 [Compound 64, 2-(1,2,3,4-tetrahydro-2,8-dimethylpyrido[4,3-b]indol-5-yl)acetamide] | -3 | 20 | 5 | 62 | 2
12 | Cc1ccc2c(c1)c1c(n2CCNC(=O)C2CCNCC2)CCN(C)C1 [Compound 65, N-(2-(1,2,3,4-tetrahydro-2,8-dimethylpyrido[4,3-b]indol-5-yl)ethyl)piperidine-4-carboxamide] | -7 | 11 | 3 | 34 | 7
13 | Cc1ccc2c(c1)c1c(n2CCNC(=O)c2ccc(F)cc2)CCN(C)C1 [Compound 66, 4-fluoro-N-(2-(1,2,3,4-tetrahydro-2,8-dimethylpyrido[4,3-b]indol-5-yl)ethyl)benzamide] | 49 | 76 | 35 | 66 | -2
14 | CN1CCc2c(c3cc(Cl)ccc3n2CCC(N)=O)C1 [Compound 67, 3-(8-chloro-1,2,3,4-tetrahydro-2-methylpyrido[4,3-b]indol-5-yl)propanamide] | -6 | 32 | 24 | 70 | -1
15 | Cc1ccc2c(c1)c1c(n2CCNC(=O)C2CCCC2)CCN(C)C1 [Compound 68, N-(2-(1,2,3,4-tetrahydro-2,8-dimethylpyrido[4,3-b]indol-5-yl)ethyl)cyclopentanecarboxamide] | 31 | 66 | 15 | 58 | 1
16 | Cc1ccc2c(c1)c1c(n2CCNC(=O)c2ccncc2C)CCN(C)C1 [Compound 69, N-(2-(1,2,3,4-tetrahydro-2,8-dimethylpyrido[4,3-b]indol-5-yl)ethyl)-3-methylpyridine-4-carboxamide] | 14 | 30 | -4 | 88 | 4
17 | Cc1ccc2c(c1)c1c(n2C2CCCCC2O)CCN(C)C1 (stereo not shown) [Compound 73, 2-(1,2,3,4-tetrahydro-2,8-dimethylpyrido[4,3-b]indol-5-yl)cyclohexanol] | 8 | 6 | 7 | 2 | -3
